Assay results taken from patent publication US6737383B1, “Herbicidal oxadiazolidines” (priority 1999, dated 2004).

Legend:
[1] = system: surinam grass; experiment: Test B pre/postemergence surinam grass; format: in vivo, Brachiaria decumbens
In short: (§1)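 Response is a visual 0-to-10 score relative to untreated plants, where 0 means no effect and 10 means complete control, taken twelve to sixteen days after application. Treatments went onto soil at planting and onto foliage of 1- to 4-leaf plants, using a surfactant-containing non-phytotoxic solvent.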

[2] = system: velvetleaf; experiment: Test B pre/postemergence velvetleaf; format: in vivo, Abutilon theophrasti
In short: as §1

[3] = system: rice; experiment: Test B flood test rice; format: in vivo, Oryza sativa
In short: (§2)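 Plants were grown to the 2-leaf stage before treatment with test chemical, then held in a greenhouse for twelve to sixteen days. Injury was visually rated against untreated controls on a 0–10 scale, where 0 is no effect and 10 is complete control.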

[4] = system: soybean; experiment: Test B pre/postemergence soybean; format: in vivo, Glycine max
In short: as §1

[5] = system: corn; experiment: Test B pre/postemergence corn; format: in vivo, Zea mays
In short: as §1

[6] = system: bedstraw; experiment: Test B pre/postemergence bedstraw; format: in vivo, Galium aparine
In short: as §1

[7] = system: morningglory; experiment: Test B pre/postemergence morningglory; format: in vivo, Ipomoea hederacea
In short: as §1

[8] = system: blackgrass; experiment: Test B pre/postemergence blackgrass; format: in vivo, Alopecurus myosuroides
In short: as §1

[9] = system: pigweed; experiment: Test B pre/postemergence pigweed; format: in vivo, Amaranthus retroflexus
In short: as §1

[10] = system: wheat; experiment: Test B pre/postemergence wheat; format: in vivo, Triticum aestivum
In short: as §1

[11] = system: smallflower flatsedge; experiment: Test B flood test smallflower flatsedge; format: in vivo, Cyperus difformis
In short: as §2

[12] = system: duck salad; experiment: Test B flood test duck salad; format: in vivo, Heteranthera limosa
In short: as §2

[13] = system: purple nutsedge; experiment: Test B pre/postemergence purple nutsedge; format: in vivo, Cyperus rotundus
In short: as §1

[14] = system: crabgrass; experiment: Test B pre/postemergence crabgrass; format: in vivo, Digitaria sanguinalis
In short: as §1

[15] = system: giant foxtail; experiment: Test B pre/postemergence giant foxtail; format: in vivo, Setaria faberii
In short: as §1

[16] = system: wild oat; experiment: Test B pre/postemergence wild oat; format: in vivo, Avena fatua
In short: as §1

[17] = Postemergence, Rate 62 g/ha, scale 0 to 10, 0 is no effect, 10 is complete control
[18] = Postemergence, Rate 250 g/ha, scale 0 to 10, 0 no effect, 10 complete control
[19] = Preemergence, Rate 62 g/ha, scale 0 to 10 (0 no effect, 10 complete control)
[20] = Preemergence, Rate 125 g/ha, scale 0 to 10 (0 no effect, 10 complete control)
[21] = Preemergence, Rate 250 g/ha, scale of 0 to 10 where 0 is no effect and 10 is complete control
[22] = Preemergence, Rate 500 g/ha, scale 0 (no effect) to 10 (complete control)
[23] = Rate 125 g/ha, Postemergence, scale 0 to 10, 0 no effect, 10 complete control
[24] = Rate 500 g/ha, Postemergence, scale 0 to 10, 0 no effect, 10 complete control
[25] = Rate 125 g/ha, Postemergence section (flood test species), scale 0 to 10, 0 no effect, 10 complete control
[26] = Rate 500 g/ha, listed under Postemergence (flood test species), scale 0 to 10, 0 no effect, 10 complete control
[27] = flood test, listed under Postemergence, Rate 250 g/ha, scale 0 to 10, 0 no effect, 10 complete control

COc1cccc(C)c1-n1c(=O)on(C(=O)N(c2ccc(F)cc2F)C(C)C)c1=O [Compound 74] was tested, and the “B. signalgrass plant response rating” value [1, 17] was 0, the “B. signalgrass plant response rating” value [1, 18] was 0 and the “B. signalgrass plant response rating” value [1, 19] was 0. The “Plant response rating, B. signalgrass” value [1, 20] was 0, the “Plant response rating, B. signalgrass” value [1, 21] was 0 and the “B. signalgrass plant response rating” value [1, 22] was 0. The “B. signalgrass plant response rating” value [1, 23] was 0, the “B. signalgrass plant response rating” value ([1]; Rate 500 g/ha, Postemergence, scale of 0 to 10 where 0 is no effect and 10 is complete control) was 2 and the “Velvetleaf plant response rating” value [2, 17] was 2. The “Velvetleaf plant response rating” value [2, 18] was 4, the “Velvetleaf plant response rating” value [2, 19] was 0 and the “Plant response rating, Velvetleaf” value [2, 20] was 0. The “Plant response rating, Velvetleaf” value [2, 21] was 0, the “Velvetleaf plant response rating” value [2, 22] was 0 and the “Velvetleaf plant response rating” value [2, 23] was 4. The “Velvetleaf plant response rating” value [2, 24] was 4, the “Rice plant response rating” value [3, 17] was 0 and the “Rice plant response rating” value [3, 25] was 0. For the same molecule, the “Rice plant response rating” value [3, 26] was 0, the “Rice plant response rating” value [3, 27] was 0 and the “Soybean plant response rating” value [4, 17] was 0. The “Soybean plant response rating” value [4, 18] was 1, the “Soybean plant response rating” value [4, 19] was 0 and the “Plant response rating, Soybean” value [4, 20] was 0. For the same molecule, the “Plant response rating, Soybean” value [4, 21] was 0, the “Soybean plant response rating” value [4, 22] was 0 and the “Soybean plant response rating” value [4, 24] was 1. For the same molecule, the “Corn plant response rating” value [5, 17] was 0, the “Corn plant response rating” value [5, 18] was 0 and the “Corn plant response rating” value [5, 19] was 0. The “Plant response rating, Corn” value [5, 20] was 0, the “Plant response rating, Corn” value [5, 21] was 0 and the “Corn plant response rating” value [5, 22] was 0. For the same molecule, the “Corn plant response rating” value [5, 23] was 0, the “Corn plant response rating” value [5, 24] was 0 and the “Bedstraw plant response rating” value [6, 17] was 0. For the same molecule, the “Bedstraw plant response rating” value [6, 18] was 5, the “Bedstraw plant response rating” value [6, 19] was 0 and the “Plant response rating, Bedstraw” value [6, 20] was 0. For the same molecule, the “Plant response rating, Bedstraw” value [6, 21] was 0, the “Bedstraw plant response rating” value [6, 22] was 0 and the “Bedstraw plant response rating” value [6, 23] was 0. The “Bedstraw plant response rating” value [6, 24] was 8, the “Morningglory plant response rating” value [7, 17] was 2 and the “Morningglory plant response rating” value [7, 18] was 3. For the same molecule, the “Morningglory plant response rating” value [7, 19] was 0, the “Plant response rating, Morningglory” value [7, 20] was 0 and the “Plant response rating, Morningglory” value [7, 21] was 0. The “Morningglory plant response rating” value [7, 22] was 0, the “Morningglory plant response rating” value [7, 23] was 2 and the “Morningglory plant response rating” value [7, 24] was 4. The “Blackgrass plant response rating” value [8, 17] was 0, the “Blackgrass plant response rating” value [8, 18] was 0 and the “Blackgrass plant response rating” value [8, 19] was 0. The “Plant response rating, Blackgrass” value [8, 20] was 0, the “Plant response rating, Blackgrass” value [8, 21] was 0 and the “Blackgrass plant response rating” value [8, 22] was 0. The “Blackgrass plant response rating” value [8, 23] was 0, the “Blackgrass plant response rating” value [8, 24] was 3 and the “Redroot pigweed plant response rating” value [9, 17] was 0. The “Redroot pigweed plant response rating” value [9, 18] was 0, the “Redroot pigweed plant response rating” value [9, 19] was 0 and the “Plant response rating, Redroot pigweed” value [9, 20] was 0. The “Plant response rating, Redroot pigweed” value [9, 21] was 0, the “Redroot pigweed plant response rating” value [9, 22] was 3 and the “Redroot pigweed plant response rating” value [9, 23] was 0. For the same molecule, the “Redroot pigweed plant response rating” value [9, 24] was 0, the “Wheat plant response rating” value [10, 17] was 0 and the “Wheat plant response rating” value [10, 18] was 0. For the same molecule, the “Wheat plant response rating” value [10, 19] was 0, the “Plant response rating, Wheat” value [10, 20] was 0 and the “Plant response rating, Wheat” value [10, 21] was 0. For the same molecule, the “Wheat plant response rating” value [10, 22] was 0, the “Wheat plant response rating” value [10, 23] was 0 and the “Wheat plant response rating” value [10, 24] was 3. For the same molecule, the “S. Flatsedge plant response rating” value [11, 17] was 0, the “S. Flatsedge plant response rating” value [11, 25] was 0 and the “S. Flatsedge plant response rating” value [11, 26] was 0. The “S. Flatsedge plant response rating” value [11, 27] was 0, the “Ducksalad plant response rating” value [12, 17] was 0 and the “Ducksalad plant response rating” value [12, 25] was 0. The “Ducksalad plant response rating” value [12, 26] was 0, the “Ducksalad plant response rating” value [12, 27] was 0 and the “Nutsedge plant response rating” value [13, 17] was 0. The “Nutsedge plant response rating” value [13, 18] was 0, the “Nutsedge plant response rating” value [13, 19] was 0 and the “Plant response rating, Nutsedge” value [13, 20] was 0. The “Plant response rating, Nutsedge” value [13, 21] was 0, the “Nutsedge plant response rating” value [13, 22] was 0 and the “Nutsedge plant response rating” value [13, 23] was 0. The “Nutsedge plant response rating” value [13, 24] was 0, the “Crabgrass plant response rating” value [14, 17] was 0 and the “Crabgrass plant response rating” value [14, 18] was 4. For the same molecule, the “Crabgrass plant response rating” value [14, 19] was 2, the “Plant response rating, Crabgrass” value [14, 20] was 2 and the “Plant response rating, Crabgrass” value [14, 21] was 5. For the same molecule, the “Crabgrass plant response rating” value [14, 22] was 8, the “Crabgrass plant response rating” value [14, 23] was 2 and the “Crabgrass plant response rating” value [14, 24] was 7. The “Giant foxtail plant response rating” value [15, 17] was 0, the “Giant foxtail plant response rating” value [15, 19] was 3 and the “Plant response rating, Giant foxtail” value [15, 20] was 7. For the same molecule, the “Plant response rating, Giant foxtail” value [15, 21] was 8, the “Giant foxtail plant response rating” value [15, 22] was 10 and the “Giant foxtail plant response rating” value [15, 23] was 0. The “Giant foxtail plant response rating” value [15, 24] was 2, the “Wild oats plant response rating” value [16, 17] was 0 and the “Wild oats plant response rating” value [16, 18] was 0. The “Wild oats plant response rating” value [16, 19] was 0, the “Plant response rating, Wild oats” value [16, 20] was 0 and the “Plant response rating, Wild oats” value [16, 21] was 0. The “Wild oats plant response rating” value [16, 22] was 0, the “Wild oats plant response rating” value [16, 23] was 0 and the “Wild oats plant response rating” value [16, 24] was 2.
